Source: US20260151372A1, “AZOTOMYCIN PRODRUGS WITH PREFERENTIAL TUMOR DELIVERY” (The Johns Hopkins University, priority 2022, published 2026)
Entries after “also recorded” stand apart in the source; their conditions may differ.

Key:
[1] = Pharmacokinetics in C57BL/6 CES1^−/− mice bearing flank EL4 tumors; format: in vivo
Protocol: The pharmacokinetic study in C57BL/6 CES1 mice was conducted according to protocols reviewed and approved by the Johns Hopkins Institutional Animal Care and Use Committee in compliance with the Association for Assessment and Accreditation of Laboratory Animal Care International and the Public Health Service Policy on the Humane Care and Use of Laboratory Animals (PHS Policy). Briefly, naïve male and female C57BL/6 CES1^−/− mice (weighing between 25 and 30 g) 6-8 weeks of age were used. The animals were maintained on a 12 h light-dark cycle with ad libitum access to food and water. Tumors were grown via subcutaneous (SC) injection of EL4 cells (1×10^6 cells in 0.2 mL of phosphate-buffered saline) in one location on the flank of each mouse. […]
For quantifying intact analytes in the pharmacokinetic samples, plasma samples (25 μL) were processed using a single step protein precipitation method by addition of 125 μL of methanol containing internal standard (losartan: 0.5 μM), followed by vortex-mixing for 30 s and then centrifugation at 16,000 g for 5 min at 4° C. […]
The samples were subjected to dabsyl chloride derivatization and analyzed by LC-MS/MS, as described in Tenora et al., 2019. […]

[2] = Plasma stability in CES1KO mouse plasma; format: in vitro ADME; details: for Plasma Stability (% Remaining at 60 min) CES1^−/− Mouse Plasma: 37° C.; for stability in vitro (in words): mouse and human plasma and liver microsomes in vitro
Protocol: (§1) In vitro stability studies were done using CES1KO mouse plasma, human plasma, CES1-KO mouse liver, and human liver microsomes as previously described. For tissue homogenate stability studies, washed tissue was diluted 10-fold in 0.1 M potassium phosphate buffer and homogenized using probe sonication. Crude homogenate was then aliquoted to 1 mL, and spiked with 10 mM stock of the analyte in DMSO to achieve a 10 μM final concentration. The plasma stability of the prodrugs was determined by spiking the analyte in 1 mL of plasma. The plasma and tissues were incubated in an orbital shaker at 37° C. Stability in human liver microsomes was assessed at a final prodrug concentration of 1 μM with 0.2 mg/mL protein for microsomes. All the stability studies were conducted at predetermined times (0 and 60 min), where 50 μL aliquots of the mixture in triplicate were removed and the reaction was quenched by addition of 5 times the volume of ice-cold methanol spiked with the internal standard (losartan: 0.5 μM). The samples were vortex-mixed for 30 s and centrifuged at 10,000 g for 10 min at 4° C. An amount of 50 μL of the supernatant was diluted with 50 μL of water and transferred to a 250 μL polypropylene vial sealed with a Teflon cap. Prodrug disappearance was monitored over time using liquid chromatography and mass spectrometry (LC-MS).
(§2) Analyses were performed on a Dionex ultra high-performance LC system coupled with Q Exactive Focus orbitrap mass spectrometer (Thermo Fisher Scientific Inc., Waltham MA). Separation was achieved using Agilent Eclipse Plus column (100×2.1 mm i.d., maintained at 35° C.) packed with a 1.8 μm C18 stationary phase. The mobile phase consisted of 0.1% formic acid in water and 0.1% formic acid in acetonitrile, […] were operated at a flow rate of 0.3 mL/min for 7 min using gradient elution. The mass spectrometer controlled by Xcalibur software 4.0.27.13 (Thermo Scientific) was operated with a HESI ion source in positive ionization mode. Metabolites were identified in the full-scan mode (from m/z 50 to 1600) by comparing […] samples

[3] = Metabolic stability in CES1-KO mouse liver homogenate; format: in vitro ADME; details: tissue homogenate, 10 μM, 37° C.
Protocol: as §1, §2

[4] = Metabolic stability in human liver microsomes; format: in vitro ADME; details: 1 μM prodrug, 0.2 mg/mL protein
Protocol: as §1, §2

[5] = Plasma stability in human plasma; format: in vitro ADME; details: 37° C.
Protocol: as §1, §2

Row | SMILES | preferential tumor delivery / tumor targeting (in words) [1] | Plasma Stability (% Remaining at 60 min) CES1^−/− Mouse Plasma [2] [%] | stability in vitro (in words) [2] | Liver Stability (% Remaining at 60 min) CES1^−/− Mouse Liver [3] [%] | Liver Stability (% Remaining at 60 min) Human Liver Microsomes [4] [%] | Plasma Stability (% Remaining at 60 min) Human Plasma [5] [%]
1 | CN(C)CC(=O)N[C@@H](CCC(=O)N[C@@H](CCC(=O)C=[N+]=[N-])C(=O)N[C@@H](CCC(=O)C=[N+]=[N-])C(=O)OC(C)(C)C)C(=O)OC(C)(C)C [Prodrug P3, tert-Butyl (6S,11S,14S)-6-(tert-butoxycarbonyl)-11,14-bis(4-diazo-3-oxobutyl)-2-methyl-4,9,12-trioxo-2,5,10,13-tetraazapentadecan-15-oate] | exhibited preferential tumor delivery | 92.3 ± 0.882 | stable | 96.0 ± 4.36 | 105 ± 2.53 | 106 ± 2.40
2 | CN(C)CC(=O)N[C@@H](Cc1c[nH]c2ccccc12)C(=O)N[C@@H](CCC(=O)N[C@@H](CCC(=O)C=[N+]=[N-])C(=O)N[C@@H](CCC(=O)C=[N+]=[N-])C(=O)OC(C)(C)C)C(=O)OC(C)(C)C [Prodrug P4, tert-Butyl (6S,9S,14S,17S)-6-((1H-indol-3-yl)methyl)-9-(tert-butoxycarbonyl)-14,17-bis(4-diazo-3-oxobutyl)-2-methyl-4,7,12,15-tetraoxo-2,5,8,13,16-pentaazaoctadecan-18-oate] | exhibited preferential tumor delivery; also recorded: showed tumor targeting | 101 ± 4.67 | stable | 54.3 ± 1.45 | 107 ± 1.63 | 100 ± 0.00
3 | CC(C)C[C@H](N)C(=O)N[C@@H](CCC(=O)N[C@@H](CCC(=O)C=[N+]=[N-])C(=O)N[C@@H](CCC(=O)C=[N+]=[N-])C(=O)[O-])C(=O)[O-].[Na+].[Na+] [Prodrug P16, Sodium (S)-2-((S)-2-((S)-4-((S)-2-amino-4-methylpentanamido)-4-carboxylatobutanamido)-6-diazo-5-oxohexanamido)-6-diazo-5-oxohexanoate] | – | 4.17 ± 0.58 | – | 4.50 ± 1.58 | 91.0 ± 1.01 | 87.4 ± 1.61
4 | CC(C)OC(=O)[C@H](CCC(=O)N[C@@H](CCC(=O)C=[N+]=[N-])C(=O)N[C@@H](CCC(=O)C=[N+]=[N-])C(=O)OC(C)C)NC(=O)CNC(=O)CN(C)C [Prodrug P17, Isopropyl (9S,14S,17S)-14,17-bis(4-diazo-3-oxobutyl)-9-(isopropoxycarbonyl)-2-methyl-4,7,12,15-tetraoxo-2,5,8,13,16-pentaazaoctadecan-18-oate] | – | 94.0 ± 2.47 | – | 0.964 ± 0.031 | 98.0 ± 5.36 | 93.7 ± 4.92
5 | CC(C)OC(=O)[C@H](CCC(=O)C=[N+]=[N-])NC(=O)[C@H](CCC(=O)C=[N+]=[N-])NC(=O)CC[C@H](NC(=O)[C@H](CCCNC(N)=O)NC(=O)[C@@H](N)C(C)C)C(=O)OC(C)C [Prodrug P18, Isopropyl (6S,9S,14S,17S)-1-amino-6-((S)-2-amino-3-methylbutanamido)-14,17-bis(4-diazo-3-oxobutyl)-9-(isopropoxycarbonyl)-1,7,12,15-tetraoxo-2,8,13,16-tetraazaoctadecan-18-oate] | – | 105 ± 5 | – | 0.11 ± 0.03 | 84.9 ± 2.30 | 105 ± 4.81
6 | CC(=O)NCCCC[C@H](NC(=O)C12CC3CC(CC(C3)C1)C2)C(=O)N[C@@H](CCC(=O)N[C@@H](CCC(=O)C=[N+]=[N-])C(=O)N[C@@H](CCC(=O)C=[N+]=[N-])C(=O)OC(C)C)C(=O)OC(C)C [Prodrug P19, Isopropyl (2S,5S,10S,13S)-13-((3S,5S,7S)-adamantane-1-carboxamido)-2,5-bis(4-diazo-3-oxobutyl)-10-(isopropoxycarbonyl)-4,7,12,19-tetraoxo-3,6,11,18-tetraazaicosanoate] | – | 85.1 ± 0.64 | – | 0.502 ± 0.103 | 74.1 ± 2.10 | 97.0 ± 4.11
